This is an account of results in patent US20210283261A1, “Compositions and Methods for Treating ALK-Mediated Cancer” (ICAHN SCHOOL OF MEDICINE AT MOUNT SINAI, priority 2017, published 2021).

T2 sequence (Q9UM73 with tags, fused parts or gaps): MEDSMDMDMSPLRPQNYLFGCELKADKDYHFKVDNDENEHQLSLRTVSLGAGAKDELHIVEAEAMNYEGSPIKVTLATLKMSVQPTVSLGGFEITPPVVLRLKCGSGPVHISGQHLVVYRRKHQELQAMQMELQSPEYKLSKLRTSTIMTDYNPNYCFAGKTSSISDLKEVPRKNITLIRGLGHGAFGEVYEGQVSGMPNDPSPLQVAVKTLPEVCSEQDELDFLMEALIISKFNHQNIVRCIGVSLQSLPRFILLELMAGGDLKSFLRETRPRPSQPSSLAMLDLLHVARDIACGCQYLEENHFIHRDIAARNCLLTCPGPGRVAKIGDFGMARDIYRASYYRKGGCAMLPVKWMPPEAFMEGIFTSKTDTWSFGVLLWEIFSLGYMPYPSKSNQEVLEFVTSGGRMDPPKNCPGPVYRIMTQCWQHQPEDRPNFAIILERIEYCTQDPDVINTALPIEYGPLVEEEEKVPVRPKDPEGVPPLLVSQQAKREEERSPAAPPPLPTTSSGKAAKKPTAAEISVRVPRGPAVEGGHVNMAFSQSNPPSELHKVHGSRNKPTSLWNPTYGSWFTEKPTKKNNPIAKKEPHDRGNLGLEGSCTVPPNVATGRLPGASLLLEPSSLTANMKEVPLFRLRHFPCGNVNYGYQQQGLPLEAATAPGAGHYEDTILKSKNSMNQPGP

The target in one assay is T1, ALK fusion protein (Homo sapiens, UniProt Q9UM73).
T1 construct: endogenous in cells; host or cells: NCI-H3122; the other entry of the earlier key: EML4 (Q9HC35, Echinoderm microtubule-associated protein-like 4)
T1 sequence (Q9UM73 with tags, fused parts or gaps): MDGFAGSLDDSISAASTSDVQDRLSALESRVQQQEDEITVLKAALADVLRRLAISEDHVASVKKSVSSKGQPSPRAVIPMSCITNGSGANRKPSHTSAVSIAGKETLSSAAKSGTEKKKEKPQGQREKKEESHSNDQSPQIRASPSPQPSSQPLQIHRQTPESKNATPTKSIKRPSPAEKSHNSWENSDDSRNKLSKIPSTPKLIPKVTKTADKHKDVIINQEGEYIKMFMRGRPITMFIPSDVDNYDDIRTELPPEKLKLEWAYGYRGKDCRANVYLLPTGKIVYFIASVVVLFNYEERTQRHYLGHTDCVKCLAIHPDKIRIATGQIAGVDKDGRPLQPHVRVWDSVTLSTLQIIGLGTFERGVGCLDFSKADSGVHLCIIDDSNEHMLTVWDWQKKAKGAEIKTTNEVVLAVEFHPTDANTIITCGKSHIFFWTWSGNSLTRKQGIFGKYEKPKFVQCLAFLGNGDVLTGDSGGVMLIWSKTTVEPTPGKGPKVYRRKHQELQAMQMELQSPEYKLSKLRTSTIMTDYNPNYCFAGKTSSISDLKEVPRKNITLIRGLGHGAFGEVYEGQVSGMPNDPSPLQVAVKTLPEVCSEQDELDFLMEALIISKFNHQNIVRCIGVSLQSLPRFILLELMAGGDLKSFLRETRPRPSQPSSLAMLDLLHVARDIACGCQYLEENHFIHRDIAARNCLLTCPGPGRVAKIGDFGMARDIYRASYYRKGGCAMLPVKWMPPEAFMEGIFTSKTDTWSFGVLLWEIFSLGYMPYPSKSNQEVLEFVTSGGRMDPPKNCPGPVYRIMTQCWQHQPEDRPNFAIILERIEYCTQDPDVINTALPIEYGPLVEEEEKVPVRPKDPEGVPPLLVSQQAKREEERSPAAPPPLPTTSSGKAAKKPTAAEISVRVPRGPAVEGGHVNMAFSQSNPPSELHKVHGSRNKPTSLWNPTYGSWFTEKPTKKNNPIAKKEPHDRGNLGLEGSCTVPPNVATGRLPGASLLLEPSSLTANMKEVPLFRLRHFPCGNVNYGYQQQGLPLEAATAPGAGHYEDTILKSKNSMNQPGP
The experiment in a line: Western blot of ALK fusion protein levels in NCI-H3122 cells. The class given is cell-based. The note with it: NCI-H3122, NCI-H3122 cells, 500 nM, Western blot; read-out: ALK fusion protein degradation, NCI-H3122 (500 nM). The method, then:
SU-DHL-1, NCI-H3122 and NCI-H2228 cells were cultured in RPMI-1640 medium supplemented with 10% fetal bovine serum, 50 μg/mL penicillin and streptomycin. Cells were cultured in a 37° C. incubator with 5% CO2.
Cells were washed with cold PBS once and lysed in 1× Laemmli loading buffer directly. Lysates were heated at 99° C. for […], and resolved on 4-15% precast SDS-PAGE (BIO-RAD) and transferred onto PVDF membrane. Membrane was blocked in 5% milk in Tris-buffered saline and Tween 20 (TBST) for 1 h at room temperature, followed by incubation with a primary antibody overnight at 4° C., and a horseradish peroxidase (HRP)-conjugated secondary antibody for 1 h at room temperature. The membrane was imaged by a ChemiDoc MP imaging system (BIO-RAD). Antibodies against GAPDH (abeam), Phospho-ALK (Tyr1507), ALK (Cell Signaling Technology), Tubulin (Santa Cruz) were purchased commercially. […]
A general note: In western blotting, separated proteins are transferred to a membrane and probed.
For the molecule `Cc1cc(Nc2ncc(Cl)c(Nc3ccccc3S(=O)(=O)C(C)C)n2)c(OC(C)C)cc1C1CCN(C(=O)CCOCCOCCOCCC(=O)N[C@H](C(=O)N2C[C@H](O)C[C@H]2C(=O)NCc2ccc(-c3scnc3C)cc2)C(C)(C)C)CC1` [CZ47-18, (2S,4R)-1-((S)-2-(tert-Butyl)-16-(4-(4-((5-chloro-4-((2-(isopropylsulfonyl)phenyl)amino)pyrimidin-2-yl)amino)-5-isopropoxy-2-methylphenyl)piperidin-1-yl)-4,16-dioxo-7,10,13-trioxa-3-azahexadecanoyl)-4-hydroxy-N-(4-(4-methylthiazol-5-yl)benzyl)pyrrolidine-2-carboxamide], the Dmax at 0.5 µM is less than 20%.

As to `Cc1cc(Nc2ncc(Cl)c(Nc3ccccc3S(=O)(=O)C(C)C)n2)c(OC(C)C)cc1C1CCN(C(=O)CCOCCOCCOCCOCCC(=O)N[C@H](C(=O)N2C[C@H](O)C[C@H]2C(=O)NCc2ccc(-c3scnc3C)cc2)C(C)(C)C)CC1` [CZ47-19, (2S,4R)-1-((S)-2-(tert-Butyl)-19-(4-(4-((5-chloro-4-((2-(isopropylsulfonyl)phenyl)amino)pyrimidin-2-yl)amino)-5-isopropoxy-2-methylphenyl)piperidin-1-yl)-4,19-dioxo-7,10,13,16-tetraoxa-3-azanonadecanoyl)-4-hydroxy-N-(4-(4-methylthiazol-5-yl)benzyl)pyrrolidine-2-carboxamide], the Dmax at 0.5 µM is less than 20%.

As to `Cc1cc(Nc2ncc(Cl)c(Nc3ccccc3S(=O)(=O)C(C)C)n2)c(OC(C)C)cc1C1CCN(C(=O)COCCOCCOCCOCCOCC(=O)N[C@H](C(=O)N2C[C@H](O)C[C@H]2C(=O)NCc2ccc(-c3scnc3C)cc2)C(C)(C)C)CC1` [CZ47-20, (2S,4R)-1-((S)-2-(tert-Butyl)-20-(4-(4-((5-chloro-4-((2-(isopropylsulfonyl)phenyl)amino)pyrimidin-2-yl)amino)-5-isopropoxy-2-methylphenyl)piperidin-1-yl)-4,20-dioxo-6,9,12,15,18-pentaoxa-3-azaicosanoyl)-4-hydroxy-N-(4-(4-methylthiazol-5-yl)benzyl)pyrrolidine-2-carboxamide], the Dmax at 0.5 µM is less than 20%.

On to `Cc1cc(Nc2ncc(Cl)c(Nc3ccccc3S(=O)(=O)C(C)C)n2)c(OC(C)C)cc1C1CCN(C(=O)CCOCCOCCOCCOCCOCCC(=O)N[C@H](C(=O)N2C[C@H](O)C[C@H]2C(=O)NCc2ccc(-c3scnc3C)cc2)C(C)(C)C)CC1` [CZ47-21, (2S,4R)-1-((S)-2-(tert-Butyl)-22-(4-(4-((5-chloro-4-((2-(isopropylsulfonyl)phenyl)amino)pyrimidin-2-yl)amino)-5-isopropoxy-2-methylphenyl)piperidin-1-yl)-4,22-dioxo-7,10,13,16,19-pentaoxa-3-azadocosanoyl)-4-hydroxy-N-(4-(4-methylthiazol-5-yl)benzyl)pyrrolidine-2-carboxamide], for which the Dmax at 0.5 µM is less than 20%.

For the molecule `Cc1cc(Nc2ncc(Cl)c(Nc3ccccc3S(=O)(=O)C(C)C)n2)c(OC(C)C)cc1C1CCN(C(=O)CCC(=O)N[C@H](C(=O)N2C[C@H](O)C[C@H]2C(=O)NCc2ccc(-c3scnc3C)cc2)C(C)(C)C)CC1` [CZ47-22, (2S,4R)-1-((S)-2-(4-(4-(4-((5-Chloro-4-((2-(isopropylsulfonyl)phenyl)amino)pyrimidin-2-yl)amino)-5-isopropoxy-2-methylphenyl)piperidin-1-yl)-4-oxobutanamido)-3,3-dimethylbutanoyl)-4-hydroxy-N-(4-(4-methylthiazol-5-yl)benzyl)pyrrolidine-2-carboxamide], the Dmax at 0.5 µM lay in the range of 20 to 80%.

On to `Cc1cc(Nc2ncc(Cl)c(Nc3ccccc3S(=O)(=O)C(C)C)n2)c(OC(C)C)cc1C1CCN(C(=O)CCCCCC(=O)N[C@H](C(=O)N2C[C@H](O)C[C@H]2C(=O)NCc2ccc(-c3scnc3C)cc2)C(C)(C)C)CC1` [CZ47-25, (2S,4R)-1-((S)-2-(7-(4-(4-((5-Chloro-4-((2-(isopropylsulfonyl)phenyl)amino)pyrimidin-2-yl)amino)-5-isopropoxy-2-methylphenyl)piperidin-1-yl)-7-oxoheptanamido)-3,3-dimethylbutanoyl)-4-hydroxy-N-(4-(4-methylthiazol-5-yl)benzyl)pyrrolidine-2-carboxamide], for which the Dmax at 0.5 µM is more than 80%.

As to `Cc1cc(Nc2ncc(Cl)c(Nc3ccccc3S(=O)(=O)C(C)C)n2)c(OC(C)C)cc1C1CCN(C(=O)CCCCCCC(=O)N[C@H](C(=O)N2C[C@H](O)C[C@H]2C(=O)NCc2ccc(-c3scnc3C)cc2)C(C)(C)C)CC1` [CZ47-26, (2S,4R)-1-((S)-2-(8-(4-(4-((5-Chloro-4-((2-(isopropylsulfonyl)phenyl)amino)pyrimidin-2-yl)amino)-5-isopropoxy-2-methylphenyl)piperidin-1-yl)-8-oxooctanamido)-3,3-dimethylbutanoyl)-4-hydroxy-N-(4-(4-methylthiazol-5-yl)benzyl)pyrrolidine-2-carboxamide], the Dmax at 0.5 µM is more than 80%.

Take `Cc1cc(Nc2ncc(Cl)c(Nc3ccccc3S(=O)(=O)C(C)C)n2)c(OC(C)C)cc1C1CCN(C(=O)CCCCCCCC(=O)N[C@H](C(=O)N2C[C@H](O)C[C@H]2C(=O)NCc2ccc(-c3scnc3C)cc2)C(C)(C)C)CC1` [CZ47-27, (2S,4R)-1-((S)-2-(9-(4-(4-((5-Chloro-4-((2-(isopropylsulfonyl)phenyl)amino)pyrimidin-2-yl)amino)-5-isopropoxy-2-methylphenyl)piperidin-1-yl)-9-oxononanamido)-3,3-dimethylbutanoyl)-4-hydroxy-7V-(4-(4-methylthiazol-5-yl)benzyl)pyrrolidine-2-carboxamide]: the Dmax at 0.5 µM is more than 80%.

Turning to `Cc1cc(Nc2ncc(Cl)c(Nc3ccccc3S(=O)(=O)C(C)C)n2)c(OC(C)C)cc1C1CCN(C(=O)CCCCCCCCC(=O)N[C@H](C(=O)N2C[C@H](O)C[C@H]2C(=O)NCc2ccc(-c3scnc3C)cc2)C(C)(C)C)CC1` [CZ47-28, (2S,4R)-1-((S)-2-(10-(4-(4-((5-Chloro-4-((2-(isopropylsulfonyl)phenyl)amino)pyrimidin-2-yl)amino)-5-isopropoxy-2-methylphenyl)piperidin-1-yl)-10-oxodecanamido)-3,3-dimethylbutanoyl)-4-hydroxy-N-(4-(4-methylthiazol-5-yl)benzyl)pyrrolidine-2-carboxamide], the Dmax at 0.5 µM was less than 20%.

For the molecule `Cc1cc(Nc2ncc(Cl)c(Nc3ccccc3S(=O)(=O)C(C)C)n2)c(OC(C)C)cc1C1CCN(C(=O)CCCCCCCCCC(=O)N[C@H](C(=O)N2C[C@H](O)C[C@H]2C(=O)NCc2ccc(-c3scnc3C)cc2)C(C)(C)C)CC1` [CZ47-29, (2S,4R)-1-((S)-2-(ll-(4-(4-((5-Chloro-4-((2-(isopropylsulfonyl)phenyl)amino)pyrimidin-2-yl)amino)-5-isopropoxy-2-methylphenyl)piperidin-1-yl)-11-oxoundecanamido)-3,3-dimethylbutanoyl)-4-hydroxy-N-(4-(4-methylthiazol-5-yl)benzyl)pyrrolidine-2-carboxamide], the Dmax at 0.5 µM is less than 20%.

Another assay concerns the target T2, NPM-ALK fusion protein (Homo sapiens, UniProt Q9UM73).
T2 construct: endogenous in cells; host or cells: SU-DHL-1; the other entry of the earlier key: NPM1 (P06748, Nucleophosmin)
The experiment in a line: Western blot of NPM-ALK fusion protein levels in SU-DHL-1 cells. It is filed as cell-based. The note with it: SU-DHL-1 cells, 30 nM, Western blot; read-out: ALK fusion protein degradation, SU-DHL-1 (30 nM). The procedure:
Cells were cultured in a 37° C. incubator with 5% CO2.
Cells were washed with cold PBS once and lysed in 1× Laemmli loading buffer directly. […] Membrane was blocked in 5% milk in Tris-buffered saline and Tween 20 (TBST) for 1 h at room temperature, followed by incubation with a primary antibody overnight at 4° C., and a horseradish peroxidase (HRP)-conjugated secondary antibody for 1 h at room temperature. The membrane was imaged by a ChemiDoc MP imaging system (BIO-RAD). Antibodies against GAPDH (abeam), Phospho-ALK (Tyr1507), ALK (Cell Signaling Technology), Tubulin (Santa Cruz) were purchased commercially.
SU-DHL-1 suspension cells were seeded in 12-well plates at a density of 6×10^5/mL and treated with DMSO or indicated compounds at 30 nM or 100 nM for indicated time.
SU-DHL-1 cells were seeded in 12-well plates at a density of 4×10^5/mL and treated with DMSO or indicated serial dilutions of compounds for 16 h. The NPM-ALK fusion protein levels were determined by Western blot and normalized against GPADH (right panel).
On to `Cc1cc(Nc2ncc(Cl)c(Nc3ccccc3S(=O)(=O)C(C)C)n2)c(OC(C)C)cc1C1CCN(CC(=O)NCCOCCOCCNc2cccc3c2C(=O)N(C2CCC(=O)NC2=O)C3=O)CC1` (stereo not drawn) [CZ40-51, 2-(4-(4-((5-Chloro-4-((2-(isopropylsulfonyl)phenyl)amino)pyrimidin-2-yl)amino)-5-isopropoxy-2-methylphenyl)piperidin-1-yl)-N-(2-(2-(2-((2-(2,6-dioxopiperidin-3-yl)-1,3-dioxoisoindolin-4-yl)amino)ethoxy)ethoxy)ethyl)acetamide], for which the Dmax at 0.03 µM was more than 80%.

In the case of `Cc1cc(Nc2ncc(Cl)c(Nc3ccccc3S(=O)(=O)C(C)C)n2)c(OC(C)C)cc1C1CCN(CC(=O)NCCOCCOCCOCCNc2cccc3c2C(=O)N(C2CCC(=O)NC2=O)C3=O)CC1` (stereo not drawn) [CZ40-52, 2-(4-(4-((5-Chloro-4-((2-(isopropylsulfonyl)phenyl)amino)pyrimidin-2-yl)amino)-5-isopropoxy-2-methylphenyl)piperidin-1-yl)-N-(2-(2-(2-(2-((2-(2,6-dioxopiperidin-3-yl)-1,3-dioxoisoindolin-4-yl)amino)ethoxy)ethoxy)ethoxy)ethyl)acetamide], the Dmax at 0.03 µM was more than 80%.
